Laboratory results: the NIST ThermoML archive (doi:10.1021/je100290a)
Numbers after ± are expanded uncertainties.

Key:
[1] = 101 kPa, Liquid
[2] = xn = mol fraction of the nth substance listed; conditions: 101 kPa, Liquid

SMILES: OCCO [1,2-ethanediol]
- viscosity ([1]; 298.15 K): 16.8 ± 0.34 mPa·s
- mass density ([1]; 303.15 K): 1105.8 ± 3.7 kg/m3
- viscosity ([1]; 303.15 K): 13.4 ± 0.27 mPa·s
- viscosity ([1]; 308.15 K): 11.33 ± 0.24 mPa·s

SMILES: OCCO [1,2-ethanediol] + NCCN
- viscosity ([2]; 298.15 K, x2 = 0): 16.8 ± 0.34 mPa·s
- mass density ([2]; 303.15 K, x2 = 0): 1105.8 ± 3.7 kg/m3
- viscosity ([2]; 303.15 K, x2 = 0): 13.4 ± 0.27 mPa·s
- viscosity ([2]; 308.15 K, x2 = 0): 11.33 ± 0.24 mPa·s

SMILES: NCCN [ethane-1,2-diamine]
- mass density ([1]; 298.15 K): 894.5 ± 2.8 kg/m3
- viscosity ([1]; 298.15 K): 1.276 ± 0.033 mPa·s
- mass density ([1]; 303.15 K): 890.8 ± 2.8 kg/m3
- viscosity ([1]; 303.15 K): 1.211 ± 0.032 mPa·s
- mass density ([1]; 308.15 K): 885.6 ± 2.9 kg/m3
- viscosity ([1]; 308.15 K): 1.107 ± 0.029 mPa·s

SMILES: NCCN [ethane-1,2-diamine] + OCCO
- mass density ([2]; 298.15 K, x1 = 0.1027): 1096.6 ± 3.6 kg/m3
- viscosity ([2]; 298.15 K, x1 = 0.1027): 22.28 ± 0.44 mPa·s
- mass density ([2]; 298.15 K, x1 = 0.1541): 1086.6 ± 3.6 kg/m3
- viscosity ([2]; 298.15 K, x1 = 0.1541): 25.54 ± 0.5 mPa·s
- mass density ([2]; 298.15 K, x1 = 0.2052): 1078.4 ± 3.5 kg/m3
- viscosity ([2]; 298.15 K, x1 = 0.2052): 28.37 ± 0.55 mPa·s
- mass density ([2]; 298.15 K, x1 = 0.2561): 1068.5 ± 3.5 kg/m3
- viscosity ([2]; 298.15 K, x1 = 0.2561): 30.73 ± 0.59 mPa·s
- mass density ([2]; 298.15 K, x1 = 0.3066): 1061.4 ± 3.5 kg/m3
- viscosity ([2]; 298.15 K, x1 = 0.3066): 31.46 ± 0.61 mPa·s
- mass density ([2]; 298.15 K, x1 = 0.3568): 1051 ± 3.4 kg/m3
- viscosity ([2]; 298.15 K, x1 = 0.3568): 30.7 ± 0.59 mPa·s
- mass density ([2]; 298.15 K, x1 = 0.4078): 1040.4 ± 3.4 kg/m3
- viscosity ([2]; 298.15 K, x1 = 0.4078): 28.32 ± 0.55 mPa·s
- mass density ([2]; 298.15 K, x1 = 0.508): 1018.5 ± 3.3 kg/m3
- viscosity ([2]; 298.15 K, x1 = 0.508): 20.17 ± 0.4 mPa·s
- mass density ([2]; 298.15 K, x1 = 0.5579): 1006.6 ± 3.2 kg/m3
- viscosity ([2]; 298.15 K, x1 = 0.5579): 16.06 ± 0.32 mPa·s
- mass density ([2]; 298.15 K, x1 = 0.6065): 995.4 ± 3.2 kg/m3
- viscosity ([2]; 298.15 K, x1 = 0.6065): 12.51 ± 0.26 mPa·s
- mass density ([2]; 298.15 K, x1 = 0.6573): 983.1 ± 3.1 kg/m3
- viscosity ([2]; 298.15 K, x1 = 0.6573): 9.028 ± 0.19 mPa·s
- mass density ([2]; 298.15 K, x1 = 0.7071): 970.1 ± 3.1 kg/m3
- viscosity ([2]; 298.15 K, x1 = 0.7071): 6.882 ± 0.15 mPa·s
- mass density ([2]; 298.15 K, x1 = 0.756): 957.3 ± 3 kg/m3
- viscosity ([2]; 298.15 K, x1 = 0.756): 5.154 ± 0.12 mPa·s
- mass density ([2]; 298.15 K, x1 = 0.8051): 946.2 ± 3 kg/m3
- viscosity ([2]; 298.15 K, x1 = 0.8051): 3.787 ± 0.092 mPa·s
- mass density ([2]; 298.15 K, x1 = 0.8542): 933.4 ± 2.9 kg/m3
- viscosity ([2]; 298.15 K, x1 = 0.8542): 3.199 ± 0.078 mPa·s
- mass density ([2]; 298.15 K, x1 = 0.9003): 919.1 ± 2.9 kg/m3
- viscosity ([2]; 298.15 K, x1 = 0.9003): 2.273 ± 0.057 mPa·s
- mass density ([2]; 298.15 K, x1 = 0.9438): 908.8 ± 2.8 kg/m3
- viscosity ([2]; 298.15 K, x1 = 0.9438): 1.8 ± 0.046 mPa·s
- mass density ([2]; 298.15 K, x1 = 1): 894.5 ± 2.8 kg/m3
- viscosity ([2]; 298.15 K, x1 = 1): 1.276 ± 0.033 mPa·s
- mass density ([2]; 303.15 K, x1 = 0.1027): 1089.8 ± 3.7 kg/m3
- viscosity ([2]; 303.15 K, x1 = 0.1027): 17.6 ± 0.35 mPa·s
- mass density ([2]; 303.15 K, x1 = 0.1541): 1080.9 ± 3.6 kg/m3
- viscosity ([2]; 303.15 K, x1 = 0.1541): 20.56 ± 0.41 mPa·s
- mass density ([2]; 303.15 K, x1 = 0.2052): 1072.4 ± 3.6 kg/m3
- viscosity ([2]; 303.15 K, x1 = 0.2052): 22.44 ± 0.44 mPa·s
- mass density ([2]; 303.15 K, x1 = 0.2561): 1062.2 ± 3.5 kg/m3
- viscosity ([2]; 303.15 K, x1 = 0.2561): 23.15 ± 0.45 mPa·s
- mass density ([2]; 303.15 K, x1 = 0.3066): 1053.5 ± 3.5 kg/m3
- viscosity ([2]; 303.15 K, x1 = 0.3066): 23.66 ± 0.46 mPa·s
- mass density ([2]; 303.15 K, x1 = 0.3568): 1042.8 ± 3.5 kg/m3
- viscosity ([2]; 303.15 K, x1 = 0.3568): 22.85 ± 0.45 mPa·s
- mass density ([2]; 303.15 K, x1 = 0.4078): 1034.8 ± 3.4 kg/m3
- viscosity ([2]; 303.15 K, x1 = 0.4078): 21.31 ± 0.42 mPa·s
- mass density ([2]; 303.15 K, x1 = 0.508): 1013.9 ± 3.3 kg/m3
- viscosity ([2]; 303.15 K, x1 = 0.508): 15.18 ± 0.31 mPa·s
- mass density ([2]; 303.15 K, x1 = 0.5579): 1000.7 ± 3.3 kg/m3
- viscosity ([2]; 303.15 K, x1 = 0.5579): 12.27 ± 0.25 mPa·s
- mass density ([2]; 303.15 K, x1 = 0.6065): 988.3 ± 3.2 kg/m3
- viscosity ([2]; 303.15 K, x1 = 0.6065): 9.748 ± 0.21 mPa·s
- mass density ([2]; 303.15 K, x1 = 0.6573): 976.2 ± 3.2 kg/m3
- viscosity ([2]; 303.15 K, x1 = 0.6573): 7.157 ± 0.16 mPa·s
- mass density ([2]; 303.15 K, x1 = 0.7071): 964.5 ± 3.1 kg/m3
- viscosity ([2]; 303.15 K, x1 = 0.7071): 5.681 ± 0.13 mPa·s
- mass density ([2]; 303.15 K, x1 = 0.756): 951.7 ± 3.1 kg/m3
- viscosity ([2]; 303.15 K, x1 = 0.756): 4.177 ± 0.1 mPa·s
- mass density ([2]; 303.15 K, x1 = 0.8051): 938.8 ± 3 kg/m3
- viscosity ([2]; 303.15 K, x1 = 0.8051): 3.154 ± 0.077 mPa·s
- mass density ([2]; 303.15 K, x1 = 0.8542): 924.9 ± 3 kg/m3
- viscosity ([2]; 303.15 K, x1 = 0.8542): 2.552 ± 0.063 mPa·s
- mass density ([2]; 303.15 K, x1 = 0.9003): 913.4 ± 2.9 kg/m3
- viscosity ([2]; 303.15 K, x1 = 0.9003): 1.92 ± 0.048 mPa·s
- mass density ([2]; 303.15 K, x1 = 0.9438): 903.4 ± 2.9 kg/m3
- viscosity ([2]; 303.15 K, x1 = 0.9438): 1.561 ± 0.04 mPa·s
- mass density ([2]; 303.15 K, x1 = 1): 890.8 ± 2.8 kg/m3
- viscosity ([2]; 303.15 K, x1 = 1): 1.211 ± 0.032 mPa·s
- mass density ([2]; 308.15 K, x1 = 0.1027): 1084.4 ± 3.7 kg/m3
- viscosity ([2]; 308.15 K, x1 = 0.1027): 14.05 ± 0.29 mPa·s
- mass density ([2]; 308.15 K, x1 = 0.1541): 1073.8 ± 3.7 kg/m3
- viscosity ([2]; 308.15 K, x1 = 0.1541): 16.93 ± 0.34 mPa·s
- mass density ([2]; 308.15 K, x1 = 0.2052): 1062.4 ± 3.6 kg/m3
- viscosity ([2]; 308.15 K, x1 = 0.2052): 18.21 ± 0.36 mPa·s
- mass density ([2]; 308.15 K, x1 = 0.2561): 1053.8 ± 3.6 kg/m3
- viscosity ([2]; 308.15 K, x1 = 0.2561): 19.28 ± 0.38 mPa·s
- mass density ([2]; 308.15 K, x1 = 0.3066): 1042.9 ± 3.5 kg/m3
- viscosity ([2]; 308.15 K, x1 = 0.3066): 19.2 ± 0.38 mPa·s
- mass density ([2]; 308.15 K, x1 = 0.3568): 1033.8 ± 3.5 kg/m3
- viscosity ([2]; 308.15 K, x1 = 0.3568): 18.5 ± 0.37 mPa·s
- mass density ([2]; 308.15 K, x1 = 0.4078): 1026.6 ± 3.5 kg/m3
- viscosity ([2]; 308.15 K, x1 = 0.4078): 17 ± 0.34 mPa·s
- mass density ([2]; 308.15 K, x1 = 0.508): 1007.2 ± 3.4 kg/m3
- viscosity ([2]; 308.15 K, x1 = 0.508): 11.89 ± 0.25 mPa·s
- mass density ([2]; 308.15 K, x1 = 0.5579): 994.7 ± 3.3 kg/m3
- viscosity ([2]; 308.15 K, x1 = 0.5579): 8.772 ± 0.19 mPa·s
- mass density ([2]; 308.15 K, x1 = 0.6065): 981.8 ± 3.3 kg/m3
- viscosity ([2]; 308.15 K, x1 = 0.6065): 6.254 ± 0.14 mPa·s
- mass density ([2]; 308.15 K, x1 = 0.6573): 968.7 ± 3.2 kg/m3
- viscosity ([2]; 308.15 K, x1 = 0.6573): 4.674 ± 0.11 mPa·s
- mass density ([2]; 308.15 K, x1 = 0.7071): 956.1 ± 3.2 kg/m3
- viscosity ([2]; 308.15 K, x1 = 0.7071): 4.008 ± 0.097 mPa·s
- mass density ([2]; 308.15 K, x1 = 0.756): 944.4 ± 3.1 kg/m3
- viscosity ([2]; 308.15 K, x1 = 0.756): 3.547 ± 0.086 mPa·s
- mass density ([2]; 308.15 K, x1 = 0.8051): 931.7 ± 3.1 kg/m3
- viscosity ([2]; 308.15 K, x1 = 0.8051): 2.683 ± 0.066 mPa·s
- mass density ([2]; 308.15 K, x1 = 0.8542): 917.5 ± 3 kg/m3
- viscosity ([2]; 308.15 K, x1 = 0.8542): 2.128 ± 0.053 mPa·s
- mass density ([2]; 308.15 K, x1 = 0.9003): 907.2 ± 3 kg/m3
- viscosity ([2]; 308.15 K, x1 = 0.9003): 1.713 ± 0.043 mPa·s
- mass density ([2]; 308.15 K, x1 = 0.9438): 897.5 ± 2.9 kg/m3
- viscosity ([2]; 308.15 K, x1 = 0.9438): 1.422 ± 0.037 mPa·s
- mass density ([2]; 308.15 K, x1 = 1): 885.6 ± 2.9 kg/m3
- viscosity ([2]; 308.15 K, x1 = 1): 1.107 ± 0.029 mPa·s
